Reference: US20240382629A1, “HETEROBIVALENT AND HOMOBIVALENT AGENTS TARGETING FIBROBLAST ACTIVATION PROTEIN ALPHA AND/OR PROSTATE-SPECIFIC MEMBRANE ANTIGEN” (The Johns Hopkins University, priority 2021, published 2024)
Where “and” joins values, the source holds several entries; their conditions need not be identical. Equal entries are not always repeated.

Assay: Biodistribution of [^18F]JHU122047 with UAMC-01110 blocker
Assay type: in vivo, mouse
[1] = + Blocker UAMC-01110, 1 hr post injection, mean
[2] = + Vehicle, 1 hr post injection, mean
[3] = individual mouse, NOD/SCID, 120 min
[4] = individual mouse, NUDE, 120 min
[5] = mean (one sample; gamma counter error), NOD/SCID, 120 min

## N#C[C@@H]1CCCN1C(=O)CNC(=O)c1ccnc2ccc(OCCF)cc12 [[^18F]JHU122047]
[1]
  % ID/g Mean Bladder: 2.10 % ID/g
  % ID/g Mean Brain: 0.19 % ID/g
  % ID/g Mean Fat: 0.08 % ID/g
  % ID/g Mean Kidney: 0.60 % ID/g
  % ID/g Mean Large intestine: 2.19 % ID/g
  % ID/g Mean Muscle: 0.27 % ID/g
  % ID/g Mean Pancreas: 0.23 % ID/g
  % ID/g Mean Salivary gland: 0.28 % ID/g
  % ID/g Mean Small intestine: 8.53 % ID/g
  % ID/g Mean Spleen: 0.28 % ID/g
  % ID/g Mean Stomach: 0.50 % ID/g
  % ID/g Mean Tumor: 0.45 % ID/g
[2]
  % ID/g Mean Bladder: 1.13 % ID/g
  % ID/g Mean Brain: 0.14 % ID/g
  % ID/g Mean Fat: 0.11 % ID/g
  % ID/g Mean Kidney: 1.25 % ID/g
  % ID/g Mean Large intestine: 0.99 % ID/g
  % ID/g Mean Muscle: 0.34 % ID/g
  % ID/g Mean Pancreas: 0.33 % ID/g
  % ID/g Mean Salivary gland: 0.58 % ID/g
  % ID/g Mean Small intestine: 2.48 % ID/g
  % ID/g Mean Spleen: 0.26 % ID/g
  % ID/g Mean Stomach: 0.32 % ID/g
  % ID/g Mean Tumor: 1.96 % ID/g
Blood, + Blocker UAMC-01110, 1 hr post injection, mean
  % ID/g Mean Blood: 0.12 % ID/g
Blood, + Vehicle, 1 hr post injection, mean
  % ID/g Mean Blood: 0.36 % ID/g
Blood, + Vehicle, 1 hr post injection, single mouse
  % ID/g Blood: 0.38 % ID/g and 0.34 % ID/g
Heart, + Blocker UAMC-01110, 1 hr post injection, mean
  % ID/g Mean Heart: 0.38 % ID/g
Heart, + Vehicle, 1 hr post injection, mean
  % ID/g Mean Heart: 0.35 % ID/g
Heart, + Vehicle, 1 hr post injection, single mouse
  % ID/g Heart: 0.35 % ID/g
Liver, + Blocker UAMC-01110, 1 hr post injection, mean
  % ID/g Mean Liver: 0.66 % ID/g
Liver, + Vehicle, 1 hr post injection, mean
  % ID/g Mean Liver: 0.68 % ID/g
Liver, + Vehicle, 1 hr post injection, single mouse
  % ID/g Liver: 0.67 % ID/g
Lung, + Blocker UAMC-01110, 1 hr post injection, mean
  % ID/g Mean Lung: 0.33 % ID/g
Lung, + Vehicle, 1 hr post injection, mean
  % ID/g Mean Lung: 0.36 % ID/g
Lung, + Vehicle, 1 hr post injection, single mouse
  % ID/g Lung: 0.34 % ID/g and 0.37 % ID/g
Individual mouse
  Bladder % ID/g: 12.70 % ID/g and 11.31 % ID/g
  Brain % ID/g: 0.02 % ID/g and 0.08 % ID/g
  Fat % ID/g: 0.07 % ID/g and 0.10 % ID/g
  Femur % ID/g: 0.87 % ID/g and 0.43 % ID/g
  Kidney % ID/g: 1.61 % ID/g and 1.54 % ID/g
  Large intestine % ID/g: 0.18 % ID/g and 0.19 % ID/g
  Liver % ID/g: 1.74 % ID/g and 1.65 % ID/g
  Muscle % ID/g: 0.07 % ID/g and 0.12 % ID/g
  Pancreas % ID/g: 0.07 % ID/g and 0.19 % ID/g
  Salivary gland % ID/g: 0.12 % ID/g and 0.14 % ID/g
  Small intestine % ID/g: 0.48 % ID/g and 0.45 % ID/g
  Spleen % ID/g: 0.10 % ID/g and 0.15 % ID/g
  Stomach % ID/g: 0.18 % ID/g and 0.17 % ID/g
  Tumor % ID/g: 0.21 % ID/g and 0.23 % ID/g
[3]
  Bladder % ID/g: 3.86 % ID/g
  Blood % ID/g: 0.40 % ID/g and 0.47 % ID/g
  Brain % ID/g: 0.04 % ID/g
  Fat % ID/g: 0.09 % ID/g and 0.18 % ID/g
  Femur % ID/g: 1.59 % ID/g
  Heart % ID/g: 0.20 % ID/g and 0.29 % ID/g
  Kidney % ID/g: 1.51 % ID/g and 1.58 % ID/g
  Large intestine % ID/g: 0.30 % ID/g and 0.45 % ID/g
  Liver % ID/g: 1.11 % ID/g and 0.88 % ID/g
  Lung % ID/g: 0.36 % ID/g and 0.57 % ID/g
  Muscle % ID/g: 0.25 % ID/g and 0.35 % ID/g
  Pancreas % ID/g: 0.38 % ID/g and 0.77 % ID/g
  Salivary gland % ID/g: 0.74 % ID/g and 0.62 % ID/g
  Small intestine % ID/g: 0.38 % ID/g and 0.95 % ID/g
  Spleen % ID/g: 0.26 % ID/g and 0.36 % ID/g
  Stomach % ID/g: 0.22 % ID/g and 0.35 % ID/g
  Tumor % ID/g: 3.13 % ID/g
[4]
  Bladder % ID/g: 1.31 % ID/g and 1.80 % ID/g
  Blood % ID/g: 0.66 % ID/g and 0.56 % ID/g
  Brain % ID/g: 0.05 % ID/g and 0.06 % ID/g
  Fat % ID/g: 0.13 % ID/g and 0.10 % ID/g
  Femur % ID/g: 2.27 % ID/g and 2.55 % ID/g
  Heart % ID/g: 0.34 % ID/g and 0.28 % ID/g
  Kidney % ID/g: 1.50 % ID/g and 1.43 % ID/g
  Large intestine % ID/g: 0.34 % ID/g and 0.41 % ID/g
  Liver % ID/g: 0.45 % ID/g and 0.42 % ID/g
  Lung % ID/g: 0.49 % ID/g and 0.56 % ID/g
  Muscle % ID/g: 0.49 % ID/g and 0.45 % ID/g
  Pancreas % ID/g: 0.53 % ID/g and 0.34 % ID/g
  Salivary gland % ID/g: 1.02 % ID/g and 0.78 % ID/g
  Small intestine % ID/g: 0.35 % ID/g and 0.31 % ID/g
  Spleen % ID/g: 0.22 % ID/g
  Stomach % ID/g: 0.27 % ID/g and 0.25 % ID/g
  Tumor % ID/g: 2.65 % ID/g and 3.51 % ID/g
mean
  Bladder % ID/g: 12.01 % ID/g
  Brain % ID/g: 0.02 % ID/g
  Fat % ID/g: 0.08 % ID/g
  Femur % ID/g: 0.40 % ID/g
  Kidney % ID/g: 1.57 % ID/g
  Large intestine % ID/g: 0.18 % ID/g
  Liver % ID/g: 1.70 % ID/g
  Lung % ID/g: 0.38 % ID/g
  Muscle % ID/g: 0.09 % ID/g
  Pancreas % ID/g: 0.10 % ID/g
  Salivary gland % ID/g: 0.13 % ID/g
  Small intestine % ID/g: 0.47 % ID/g
  Spleen % ID/g: 0.13 % ID/g
  Stomach % ID/g: 0.17 % ID/g
  Tumor % ID/g: 0.22 % ID/g
[5]
  Bladder % ID/g: 3.86 % ID/g
  Femur % ID/g: 1.59 % ID/g
  Tumor % ID/g: 3.13 % ID/g
mean, NOD/SCID, 120 min
  Blood % ID/g: 0.43 % ID/g
  Brain % ID/g: 0.04 % ID/g
  Fat % ID/g: 0.11 % ID/g
  Heart % ID/g: 0.24 % ID/g
  Kidney % ID/g: 1.55 % ID/g
  Large intestine % ID/g: 0.37 % ID/g
  Liver % ID/g: 1.00 % ID/g
  Lung % ID/g: 0.47 % ID/g
  Muscle % ID/g: 0.30 % ID/g
  Pancreas % ID/g: 0.57 % ID/g
  Salivary gland % ID/g: 0.58 % ID/g
  Small intestine % ID/g: 0.67 % ID/g
  Spleen % ID/g: 0.31 % ID/g
  Stomach % ID/g: 0.28 % ID/g
mean, NUDE, 120 min
  Bladder % ID/g: 1.55 % ID/g
  Blood % ID/g: 0.61 % ID/g
  Brain % ID/g: 0.06 % ID/g
  Fat % ID/g: 0.12 % ID/g
  Femur % ID/g: 2.41 % ID/g
  Heart % ID/g: 0.31 % ID/g
  Kidney % ID/g: 1.46 % ID/g
  Large intestine % ID/g: 0.37 % ID/g
  Liver % ID/g: 0.44 % ID/g
  Lung % ID/g: 0.53 % ID/g
  Muscle % ID/g: 0.47 % ID/g
  Pancreas % ID/g: 0.43 % ID/g
  Salivary gland % ID/g: 0.90 % ID/g
  Small intestine % ID/g: 0.33 % ID/g
  Spleen % ID/g: 0.22 % ID/g
  Stomach % ID/g: 0.26 % ID/g
  Tumor % ID/g: 3.08 % ID/g
